# Measured values: patent US20260001928A1 (CORTERIA PHARMACEUTICALS, priority 2022, published 2026)
# *1 amine or outer side, *2 acyl side, *3 side chain or, on linkers, in order; H or OH if unused. Where a SMILES comes first, the peptide text is derived from it. Side-chain parts run from the residue outwards. [ ]: non-standard residue; d: D form. The star is where a group is joined. C20 diacid = O=C(O)CCCCCCCCCCCCCCCCCCC(=O)*; C18 diacid = O=C(O)CCCCCCCCCCCCCCCCC(=O)*; C16 diacid = O=C(O)CCCCCCCCCCCCCCC(=O)*; γGlu = O=C(O)[C@H](CCC(=O)[*:2])N[*:1]; NMeI = CC[C@H](C)[C@H](NC)C(=O)O; Pentanoyl = CCCCC(=O)*; Aib = CC(C)(N)C(=O)O
# How the values were obtained:
# [1] = Pharmacokinetics in male Sprague Dawley rats after subcutaneous administration; format: in vivo; settings: plasma, rat; for AUC(0-t) / half-life: IV
# Sprague Dawley rats = assay: Effect on systolic blood pressure, telemetry in Sprague Dawley rats; format: in vivo, rat; settings: 0.1 mg/kg SC
# Summary of the method: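 Sprague Dawley rats with abdominal-aorta telemetry catheters, recovered ≥10 days, received 0.1 mg/kg SC of compound or vehicle. Systolic pressure recorded 1 h pre-dose as baseline, then continuously up to 48 hours, expressed as % change from baseline; duration of action is last time point with a BP effect (n=2).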
# rat CRF2 a = target: T1, rat CRF2 a (Rattus norvegicus, UniProt P47866); assay: Activity at rat CRF2 a, cAMP assay in A7R5 rat aortic smooth muscle cells; format: cell-based; settings: 0% HSA, 100% = Sauvagine at 100 nM
# T1 construct: host or cells: A7R5 rat aortic smooth muscle cells
# T1 sequence (P47866 27-431 isoform P47866-2 limits assumed): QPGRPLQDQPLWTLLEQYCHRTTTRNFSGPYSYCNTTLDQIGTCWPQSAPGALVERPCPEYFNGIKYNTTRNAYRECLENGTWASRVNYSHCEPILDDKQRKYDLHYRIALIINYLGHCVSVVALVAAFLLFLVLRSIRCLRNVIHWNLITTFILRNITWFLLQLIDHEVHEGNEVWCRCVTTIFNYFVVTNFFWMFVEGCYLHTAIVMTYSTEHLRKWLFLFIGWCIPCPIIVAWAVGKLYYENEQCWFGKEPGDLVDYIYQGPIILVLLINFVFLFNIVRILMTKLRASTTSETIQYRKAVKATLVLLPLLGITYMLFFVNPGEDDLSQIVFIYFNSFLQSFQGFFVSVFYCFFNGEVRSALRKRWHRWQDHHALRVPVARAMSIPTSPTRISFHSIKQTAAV
# Method: The A7R5 rat aortic smooth muscle cell line used in this study was purchased from ATCC.
# Cells were grown in a 10 cm dish at 37° C./5% CO2 in medium (DMEM/10% FBS) to near confluence. At that stage, cells were harvested, resuspended to 10 million/mL in culture medium and with 5% DMSO. 1 mL vial aliquots were slowly frozen to −80° C. in isopropanol and then transferred in liquid nitrogen for storage.
# These vials were used to run the experiment following the procedure reported in the previous paragraph, except for the compound used in the control well to define the 100% activation (Sauvagine at 100 nM) and the cell density (final cell density: 5000 cells/well).
# [2] = In vitro subcutaneous tissue supernatant (SCts) stability and metabolite identification, rat; format: in vitro ADME; set-up: remaining at 2 h: dose or concentration left out as unconfirmed; settings: male, Sprague Dawley; rat subcutaneous tissue supernatant (SCts), 37° C, 2 h
# [3] = Pharmacokinetics in male Sprague Dawley rats after subcutaneous administration; format: in vivo; settings: plasma, rat, SC
# [4] = Chemical stability in buffer (pH 7.4 / pH 4.5), % purity loss; format: physicochemical; settings: 100 mM phosphate buffer pH 7.4; 40° C. vs 5° C.; 14 or 28 days
# Summary of the method: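 Compounds dissolved at 10 mg/mL target in 100 mM phosphate (pH 7.4) or 100 mM acetate (pH 4.5) buffer for 1 h at room temperature, then centrifuged. Diluted supernatant stored at 5 °C or 40 °C for 14 or 28 days; % purity loss by LC-UV.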
# Rat PLM = settings: male Sprague Dawley rats, 37° C., up to 2 hours
# Human PLM = settings: 37° C., up to 2 hours
# human CRF2a receptor = target: T2, human CRF2a receptor (Homo sapiens, UniProt Q13324); assay: Activity at human CRF2a receptor, cAMP functional assay in TeloHEAC cells; format: cell-based; settings: TeloHEAC cells stably expressing human CRF2a receptor, relative to urocortin 2 (100 nM = 100%)
# T2 construct: expressed in transfected cells; host or cells: TeloHEAC cells
# T2 sequence (Q13324 1-411): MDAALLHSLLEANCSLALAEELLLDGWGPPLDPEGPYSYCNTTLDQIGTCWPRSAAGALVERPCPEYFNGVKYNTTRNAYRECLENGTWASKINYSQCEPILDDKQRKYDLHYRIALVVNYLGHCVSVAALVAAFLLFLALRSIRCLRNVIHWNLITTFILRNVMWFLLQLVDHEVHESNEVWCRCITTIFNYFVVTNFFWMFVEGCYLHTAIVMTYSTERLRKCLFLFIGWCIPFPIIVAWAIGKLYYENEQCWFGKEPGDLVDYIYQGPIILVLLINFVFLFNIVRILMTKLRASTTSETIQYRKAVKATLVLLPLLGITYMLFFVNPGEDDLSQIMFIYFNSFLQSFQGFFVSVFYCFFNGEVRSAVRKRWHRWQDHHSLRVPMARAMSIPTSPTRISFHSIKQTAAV
# Summary of the method: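 TeloHEAC cells stably expressing human CRF2a (10000 cells/well, suspended in HBSS/20 mM HEPES with 2 mM IBMX) were exposed to compounds for 30 min at 37 °C. cAMP was read as the 665/620 nm fluorescence ratio after 1 h at room temperature. EC50 was derived relative to 100 nM urocortin 2, set as 100%.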
# CFR1R receptor = target: T3, CFR1R receptor (Homo sapiens, UniProt P34998); assay: Activity at anti-target CFR1R receptor, cAMP assay in CRF1R-overexpression CHO-K1 cells; format: cell-based; settings: 100% = Sauvagine at 100 nM; for EC50: cAMP
# T3 construct: host or cells: CHO-K1 (clone 2)
# T3 sequence (P34998 24-415): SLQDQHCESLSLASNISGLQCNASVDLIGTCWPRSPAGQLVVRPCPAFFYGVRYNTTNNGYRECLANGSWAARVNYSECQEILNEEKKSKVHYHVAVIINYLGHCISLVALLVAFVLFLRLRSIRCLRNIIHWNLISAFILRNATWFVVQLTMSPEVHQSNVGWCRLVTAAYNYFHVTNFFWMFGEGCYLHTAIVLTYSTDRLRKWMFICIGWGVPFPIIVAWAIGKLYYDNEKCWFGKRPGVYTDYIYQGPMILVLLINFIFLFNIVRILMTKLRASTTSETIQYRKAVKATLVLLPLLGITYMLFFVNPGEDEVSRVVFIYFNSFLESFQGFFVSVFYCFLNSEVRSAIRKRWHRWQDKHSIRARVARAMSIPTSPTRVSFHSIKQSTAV
# Summary of the method: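 Clone 2 cells were cultured in F12 (Hams)/10% FBS/400 μg/ml G418 at 37° C./5% CO2, frozen in medium with 10% DMSO, and thawed vials used. The protocol followed the TeloHAEC procedure, with 4000 cells/well final and Sauvagine at 100 nM defining 100% activation.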
# [5] = In vitro plasma stability, rat plasma; format: in vitro ADME; set-up: remaining at 2 h: dose or concentration left out as unconfirmed; settings: male, Sprague Dawley, plasma; Rat PLM, 37° C.
# Method: (§1) In vitro plasma metabolic stability was studied in male Sprague Dawley rats and human. Test compounds were incubated at 3 M for 2 hours at 37° C. At each time point (0, 0.25, 1 and 2 h), samples were prepared for analysis by means of a single step protein precipitation technique by adding 150 μL of ethanol, 0.1% formic acid to 50 μL aliquots of plasma. Samples were mixed by vortex for homogeneity and then subjected to centrifugation at 14000 rpm for 15 min. The supernatant (100 μL) was collected, diluted with 100 μL of water, 0.1% formic acid and analyzed by LC-HRMS (TripleTOF 6600+, AB Sciex). For each test compound, the area ratios at each time point were compared to the 0 h area ratio and converted to a percentage remaining.
# [6] = In vitro plasma stability, human plasma; format: in vitro ADME; set-up: dose or concentration left out as unconfirmed; settings: Human PLM, 37° C.
# Method: as §1
# [7] = In vitro plasma stability, minipig plasma; format: in vitro ADME; set-up: remaining at 2 h: dose or concentration left out as unconfirmed; settings: pig, plasma; Minipig PLM, 37° C.
molecule,measurement,setting,value
CC[C@H](C)[C@H](NC)C(=O)N[C@H](C(=O)N[C@@H](CC(C)C)C(=O)N[C@@H](CO)C(=O)N[C@@H](CC(C)C)C(=O)N[C@@H](CC(=O)O)C(=O)N[C@@H](C(=O)N1CCC[C@H]1C(=O)N[C@H](C(=O)N[C@@H](CCCCN)C(=O)N[C@@H](CC(C)C)C(=O)N[C@@H](CCCCNC(=O)CC[C@H](NC(=O)CCCCCCCCCCCCCCCCC(=O)O)C(=O)O)C(=O)N[C@@H](CCCCN)C(=O)N[C@H](C(=O)N[C@@H](CC(C)C)C(=O)N[C@@H](CC(C)C)C(=O)N[C@@H](CCC(=O)O)C(=O)N[C@@H](CCC(N)=O)C(=O)N[C@@H](CCC(=O)O)C(=O)N[C@@H](CCCCN)C(=O)N[C@@H](CCC(N)=O)C(=O)N[C@@H](CCCCN)C(=O)NC(C)(C)C(=O)N[C@@H](CCC(N)=O)C(=O)N[C@@H](CCCNC(=N)N)C(=O)N[C@@H](CCC(=O)O)C(=O)N[C@@H](CCC(N)=O)C(=O)N[C@@H](C)C(=O)N[C@@H](CCC(=O)O)C(=O)N[C@H](C(=O)N[C@@H](CC(N)=O)C(=O)NC(C)(C)C(=O)N[C@@H](CCC(N)=O)C(=O)N[C@H](C(=O)N[C@@H](CC(C)C)C(=O)N[C@@H](C)C(=O)N[C@@H](CCC(N)=O)C(=O)N[C@H](C(N)=O)C(C)C)[C@@H](C)CC)[C@@H](C)O)[C@@H](C)CC)[C@@H](C)CC)C(C)C)C(C)C [compound 145] (H-[NMeI]VLSLD[dV]PIKLK([γGlu-C18 diacid])KILLEQEKQK[Aib]QREQAETN[Aib]QILAQV-NH2),AUC(0-t),[1]; 0.05 mg/kg,4100 ng·h/mL
same,half-life,[1]; 0.05 mg/kg,5.8 h
same,Tmax,"[1]; SC, 0.1 mg/kg",8 h
same,"Systolic blood pressure (Mean) % change from baseline, 8 h","Sprague Dawley rats; 8 h, n=2",−23%
same,"Systolic blood pressure (Mean) % change from baseline, 12 h","Sprague Dawley rats; 12 h, n=2",−21%
same,"Systolic blood pressure (Mean) % change from baseline, 24 h","Sprague Dawley rats; 24 h, n=2",−14%
same,Duration of action,Sprague Dawley rats; last time point with an effect on BP still observed,>24 h
same,EC50,rat CRF2 a,0.05 nM
same,remaining at 2 h,[2],76%
same,AUC(0-t),[3]; 0.1 mg/kg,4200 ng·h/mL
same,Cmax,[3]; 0.1 mg/kg,295 ng/mL
same,Buffer stability pH 7.4 % purity loss,[4],0.0/Not Tested %
Ac-IVLSLDvPIKLK*KILLEQEKQKKQREQAETN4-PipQILAQV-NH2,not cleaved,Rat PLM,96% remaining at 2 hours
same,not cleaved,Human PLM,104% remaining at 2 hours
CC[C@H](C)[C@H](NC)C(=O)N[C@H](C(=O)N[C@@H](CC(C)C)C(=O)N[C@@H](CO)C(=O)N[C@@H](CC(C)C)C(=O)N[C@@H](CC(=O)O)C(=O)N[C@@H](C(=O)N1CCC[C@H]1C(=O)N[C@H](C(=O)N[C@@H](CCCCN)C(=O)N[C@@H](CC(C)C)C(=O)N[C@@H](CCCCNC(=O)CC[C@H](NC(=O)CCCCCCCCCCCCCCCCCCC(=O)O)C(=O)O)C(=O)N[C@@H](CCCCN)C(=O)N[C@H](C(=O)N[C@@H](CC(C)C)C(=O)N[C@@H](CC(C)C)C(=O)N[C@@H](CCC(=O)O)C(=O)N[C@@H](CCC(N)=O)C(=O)N[C@@H](CCC(=O)O)C(=O)N[C@@H](CCCCN)C(=O)N[C@@H](CCC(N)=O)C(=O)N[C@@H](CCCCN)C(=O)N[C@@H](C)C(=O)N[C@@H](CCC(N)=O)C(=O)N[C@@H](CCCNC(=N)N)C(=O)N[C@@H](CCC(=O)O)C(=O)N[C@@H](CCC(N)=O)C(=O)N[C@@H](C)C(=O)N[C@@H](CCC(=O)O)C(=O)N[C@H](C(=O)N[C@@H](CC(N)=O)C(=O)NC(C)(C)C(=O)N[C@@H](CCC(N)=O)C(=O)N[C@H](C(=O)N[C@@H](CC(C)C)C(=O)N[C@@H](C)C(=O)N[C@@H](CCC(N)=O)C(=O)N[C@H](C(N)=O)C(C)C)[C@@H](C)CC)[C@@H](C)O)[C@@H](C)CC)[C@@H](C)CC)C(C)C)C(C)C [compound 217] (H-[NMeI]VLSLD[dV]PIKLK([γGlu-C20 diacid])KILLEQEKQKAQREQAETN[Aib]QILAQV-NH2),AUC(0-t),[1]; 0.025 mg/kg,4120 ng·h/mL
same,half-life,[1]; 0.025 mg/kg,8 h
same,EC50,rat CRF2 a,0.06 nM
same,remaining at 2 h,[2],76%
same,AUC(0-t),[3]; 0.05 mg/kg,4040 ng·h/mL
same,Cmax,[3]; 0.05 mg/kg,138 ng/mL
same,Tmax,[3]; 0.05 mg/kg,8 h
same,half-life,[3]; 0.05 mg/kg,12 h
same,EC50,human CRF2a receptor,0.09 nM
same,Buffer stability pH 7.4 % purity loss,[4],1.8/Not Tested %
same,Emax (% I),CFR1R receptor,33 % I
same,EC50,CFR1R receptor,> 250 nM
CCCCC(=O)N[C@H](C(=O)N[C@@H](CC(C)C)C(=O)N[C@@H](CO)C(=O)N[C@@H](CC(C)C)C(=O)N[C@@H](CC(=O)O)C(=O)N[C@@H](C(=O)N1CCC[C@H]1C(=O)N[C@H](C(=O)N[C@@H](CCCCN)C(=O)N[C@@H](CC(C)C)C(=O)N[C@@H](CCCCNC(=O)CC[C@H](NC(=O)CCCCCCCCCCCCCCC(=O)O)C(=O)O)C(=O)N[C@@H](CCCCN)C(=O)N[C@H](C(=O)N[C@@H](CC(C)C)C(=O)N[C@@H](CC(C)C)C(=O)N[C@@H](CCC(=O)O)C(=O)N[C@@H](CCC(N)=O)C(=O)N[C@@H](CCC(=O)O)C(=O)N[C@@H](CCCCN)C(=O)N[C@@H](CCC(N)=O)C(=O)N[C@@H](CCCCN)C(=O)N[C@@H](CCCCN)C(=O)N[C@@H](CCC(N)=O)C(=O)N[C@@H](CCCNC(=N)N)C(=O)N[C@@H](CCC(=O)O)C(=O)N[C@@H](CCC(N)=O)C(=O)N[C@@H](C)C(=O)N[C@@H](CCC(=O)O)C(=O)N[C@H](C(=O)N[C@@H](CC(N)=O)C(=O)NC(C)(C)C(=O)N[C@@H](CCC(N)=O)C(=O)N[C@H](C(=O)N[C@@H](CC(C)C)C(=O)N[C@@H](C)C(=O)N[C@@H](CCC(N)=O)C(=O)N[C@H](C(N)=O)C(C)C)[C@@H](C)CC)[C@@H](C)O)[C@@H](C)CC)[C@@H](C)CC)C(C)C)C(C)C [compound 80] (Pentanoyl-VLSLD[dV]PIKLK([γGlu-C16 diacid])KILLEQEKQKKQREQAETN[Aib]QILAQV-NH2),remaining at 2 h,[5],98%
same,remaining at 2 h,[6],101%
same,EC50,human CRF2a receptor,0.35 nM
same,Buffer stability pH 7.4 % purity loss,[4],0/nd ^ %
same,remaining at 2 h,[7],104%
same,Emax (% I),CFR1R receptor,10 % I
same,EC50,CFR1R receptor,> 250 nM
